# Measured values from patent US20050013856A1, “Solid dispersions comprising a hygroscopic and/or deliquescent drug” (priority 2002, published 2005).
# Legend:
# [1] = Hygroscopicity / deliquescence of the unformulated drug; format: physicochemical
# Text: It is particularly surprising that such a hygroscopic and deliquescent drug can be formulated in accordance with the present invention as an acceptably non-hygroscopic composition.
# [2] = Solubility of the drug in matrix forming agents HPMC and PEG; format: physicochemical
Hygroscopicity and deliquescence [1],Solubility in HPMC and PEG [2],Molecule
extremely hygroscopic and deliquescent,–,S-[2-[(1-iminoethyl)amino]ethyl]-2-methyl-L-cysteine dihydrochoride [Compound A]
extremely hygroscopic and deliquescent,low solubility,CC(=N)NCCSC[C@](C)(N)C(=O)O [S-[2-[(1-iminoethyl)amino]ethyl]-2-methyl-L-cysteine]
